Measured values published in PubChem BioAssay (NCI).
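Abbreviation: GI50, concentration required for 50% inhibition of growth. Definition used: TGI = concentration required for complete inhibition of growth.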

How the values were obtained:
Assay in all cases: NCI-60 cell line screen, 384-well format; in the data active = GI50 below about 0.43 µM; inactive = the rest
EKVX NSCLC = system: EKVX NSCLC
MCF7 breast = system: MCF7 breast
MDA-MB-468 breast = system: MDA-MB-468 breast
NCI-H23 lung = system: NCI-H23 lung
U251 glioblastoma = system: U251 glioblastoma
CAKI-1 renal = system: CAKI-1 renal
M14 melanoma = system: M14 melanoma
NCI-H322M lung = system: NCI-H322M lung
NCI-H226 lung = system: NCI-H226 lung
MDA-MB-435 melanoma = system: MDA-MB-435 melanoma
MDA-MB-231 breast = system: MDA-MB-231 breast
SF-539 CNS = system: SF-539 CNS
HL-60(TB) leukemia = system: HL-60(TB) leukemia
HCT-15 colon = system: HCT-15 colon
SK-OV-3 ovarian = system: SK-OV-3 ovarian
NCI-H460 NSCLC = system: NCI-H460 NSCLC
NCI/ADR-RES ovarian = system: NCI/ADR-RES ovarian
HCT-116 colon = system: HCT-116 colon
HOP-62 NSCLC = system: HOP-62 NSCLC
SK-MEL-28 melanoma = system: SK-MEL-28 melanoma
SF-268 CNS = system: SF-268 CNS
MALME-3M melanoma = system: MALME-3M melanoma
NCI-H522 lung = system: NCI-H522 lung
DU-145 prostate = system: DU-145 prostate
UACC-257 melanoma = system: UACC-257 melanoma
KM12 colon = system: KM12 colon
UACC-62 melanoma = system: UACC-62 melanoma
SNB-75 CNS = system: SNB-75 CNS
SK-MEL-5 melanoma = system: SK-MEL-5 melanoma
COLO 205 colon = system: COLO 205 colon
ACHN renal = system: ACHN renal
SR leukemia = system: SR leukemia
MOLT-4 leukemia = system: MOLT-4 leukemia
HS 578T breast = system: HS 578T breast
OVCAR-4 ovarian = system: OVCAR-4 ovarian
HCC-2998 colon = system: HCC-2998 colon
TK-10 renal = system: TK-10 renal
SN12C renal = system: SN12C renal
SF-295 CNS = system: SF-295 CNS
IGROV1 ovarian = system: IGROV1 ovarian
BT-549 breast = system: BT-549 breast
SNB-19 CNS = system: SNB-19 CNS
A549 NSCLC = system: A549 NSCLC
RPMI-8226 leukemia = system: RPMI-8226 leukemia
OVCAR-3 ovarian = system: OVCAR-3 ovarian
A498 renal = system: A498 renal
RXF 393 renal = system: RXF 393 renal
PC-3 prostate = system: PC-3 prostate
UO-31 renal = system: UO-31 renal
LOX IMVI melanoma = system: LOX IMVI melanoma
OVCAR-8 ovarian = system: OVCAR-8 ovarian
HT29 colon = system: HT29 colon
OVCAR-5 ovarian = system: OVCAR-5 ovarian
SW-620 colon = system: SW-620 colon
786-0 renal = system: 786-0 renal
HOP-92 NSCLC = system: HOP-92 NSCLC
T-47D breast = system: T-47D breast

O=C(NC1CCNCC1)c1[nH]ncc1NC(=O)c1c(Cl)cccc1Cl
454 nM: TGI (SF-539 CNS)
345 nM: TGI (NCI-H23 lung)
1830 nM: TGI (EKVX NSCLC)
296 nM: TGI (MDA-MB-468 breast)
703 nM: TGI (U251 glioblastoma)
356 nM: TGI (SNB-75 CNS)
692 nM: TGI (DU-145 prostate)
477 nM: TGI (NCI-H322M lung) | TGI (HS 578T breast)
344 nM: TGI (MOLT-4 leukemia) | TGI (RPMI-8226 leukemia)
809 nM: TGI (IGROV1 ovarian)
37.3 nM: TGI (SR leukemia)
564 nM: TGI (UACC-257 melanoma)
347 nM: TGI (OVCAR-3 ovarian)
391 nM: TGI (COLO 205 colon)
879 nM: TGI (A498 renal)
337 nM: TGI (SK-MEL-5 melanoma)
379 nM: TGI (MDA-MB-435 melanoma) | TGI (NCI-H460 NSCLC)
384 nM: TGI (NCI-H522 lung)
527 nM: TGI (NCI-H226 lung)
224 nM: TGI (HL-60(TB) leukemia)
9.38 µM: TGI (TK-10 renal)
394 nM: TGI (SK-MEL-28 melanoma)
> 100 µM: TGI (MCF7 breast) | TGI (CAKI-1 renal) | TGI (MDA-MB-231 breast) | TGI (SK-OV-3 ovarian) | TGI (NCI/ADR-RES ovarian) | TGI (HCT-116 colon) | TGI (KM12 colon) | TGI (SF-295 CNS) | TGI (SNB-19 CNS) | TGI (A549 NSCLC)
619 nM: TGI (M14 melanoma)
348 nM: TGI (MALME-3M melanoma)
377 nM: TGI (BT-549 breast)
inactive: GI50 (HCT-15 colon) 3.52 µM | GI50 (NCI/ADR-RES ovarian) > 100 µM | GI50 (ACHN renal) 2360 nM | GI50 (TK-10 renal) 528 nM
369 nM: TGI (UACC-62 melanoma)
500 nM: TGI (HOP-62 NSCLC)
560 nM: TGI (OVCAR-4 ovarian)
360 nM: TGI (HCC-2998 colon)
34.9 µM: TGI (ACHN renal)
395 nM: TGI (SN12C renal)
43.5 µM: TGI (HCT-15 colon)
478 nM: TGI (SF-268 CNS)
active: GI50 (EKVX NSCLC) 366 nM | GI50 (MCF7 breast) 59 nM | GI50 (MDA-MB-468 breast) 157 nM | GI50 (NCI-H23 lung) 180 nM | GI50 (U251 glioblastoma) 268 nM | GI50 (CAKI-1 renal) 371 nM | GI50 (M14 melanoma) 257 nM | GI50 (NCI-H322M lung) 197 nM | GI50 (NCI-H226 lung) 205 nM | GI50 (MDA-MB-435 melanoma) 191 nM | GI50 (MDA-MB-231 breast) 256 nM | GI50 (SF-539 CNS) 212 nM | GI50 (HL-60(TB) leukemia) 105 nM | GI50 (SK-OV-3 ovarian) 362 nM | GI50 (NCI-H460 NSCLC) 168 nM | GI50 (HCT-116 colon) 202 nM | GI50 (HOP-62 NSCLC) 212 nM | GI50 (SK-MEL-28 melanoma) 187 nM | GI50 (SF-268 CNS) 186 nM | GI50 (MALME-3M melanoma) 182 nM | GI50 (NCI-H522 lung) 202 nM | GI50 (DU-145 prostate) 260 nM | GI50 (UACC-257 melanoma) 246 nM | GI50 (KM12 colon) 176 nM | GI50 (UACC-62 melanoma) 169 nM | GI50 (SNB-75 CNS) 194 nM | GI50 (SK-MEL-5 melanoma) 183 nM | GI50 (COLO 205 colon) 126 nM | GI50 (SR leukemia) 18.5 nM | GI50 (MOLT-4 leukemia) 200 nM | GI50 (HS 578T breast) 209 nM | GI50 (OVCAR-4 ovarian) 262 nM | GI50 (HCC-2998 colon) 151 nM | GI50 (SN12C renal) 181 nM | GI50 (SF-295 CNS) 352 nM | GI50 (IGROV1 ovarian) 286 nM | GI50 (BT-549 breast) 183 nM | GI50 (SNB-19 CNS) 326 nM | GI50 (A549 NSCLC) 388 nM | GI50 (RPMI-8226 leukemia) 200 nM | GI50 (OVCAR-3 ovarian) 163 nM | GI50 (A498 renal) 304 nM

Nc1cccc2c1CN(C1CCC(=O)NC1=O)C2=O (stereo unspecified)
> 100 µM: TGI (MCF7 breast) | TGI (RXF 393 renal) | TGI (PC-3 prostate) | TGI (CAKI-1 renal) | TGI (MDA-MB-231 breast) | TGI (HCT-15 colon) | TGI (UO-31 renal) | TGI (SK-OV-3 ovarian) | TGI (LOX IMVI melanoma) | TGI (NCI/ADR-RES ovarian) | TGI (HCT-116 colon) | TGI (OVCAR-8 ovarian) | TGI (KM12 colon) | TGI (ACHN renal) | TGI (HT29 colon) | TGI (OVCAR-5 ovarian) | TGI (SW-620 colon) | TGI (TK-10 renal) | TGI (SF-295 CNS) | TGI (786-0 renal) | TGI (HOP-92 NSCLC) | TGI (T-47D breast) | TGI (SNB-19 CNS) | TGI (A549 NSCLC)
inactive: GI50 (EKVX NSCLC) > 100000 nM | GI50 (MCF7 breast) > 100000 nM | GI50 (MDA-MB-468 breast) > 100000 nM | GI50 (NCI-H23 lung) > 100000 nM | GI50 (RXF 393 renal) > 100 µM | GI50 (U251 glioblastoma) > 100000 nM | GI50 (PC-3 prostate) > 100 µM | GI50 (CAKI-1 renal) > 100000 nM | GI50 (M14 melanoma) > 100000 nM | GI50 (NCI-H322M lung) > 100000 nM | GI50 (NCI-H226 lung) > 100000 nM | GI50 (MDA-MB-435 melanoma) > 100000 nM | GI50 (MDA-MB-231 breast) > 100000 nM | GI50 (SF-539 CNS) > 100000 nM | GI50 (HL-60(TB) leukemia) > 100000 nM | GI50 (HCT-15 colon) > 100 µM | GI50 (UO-31 renal) > 100 µM | GI50 (SK-OV-3 ovarian) > 100000 nM | GI50 (LOX IMVI melanoma) > 100 µM | GI50 (NCI-H460 NSCLC) > 100000 nM | GI50 (NCI/ADR-RES ovarian) > 100 µM | GI50 (HCT-116 colon) > 100000 nM | GI50 (HOP-62 NSCLC) > 100000 nM | GI50 (SK-MEL-28 melanoma) > 100000 nM | GI50 (SF-268 CNS) > 100000 nM | GI50 (MALME-3M melanoma) > 100000 nM | GI50 (NCI-H522 lung) > 100000 nM | GI50 (DU-145 prostate) > 100000 nM | GI50 (UACC-257 melanoma) > 100000 nM | GI50 (OVCAR-8 ovarian) > 100 µM | GI50 (KM12 colon) > 100000 nM | GI50 (UACC-62 melanoma) > 100000 nM | GI50 (SNB-75 CNS) > 100000 nM | GI50 (SK-MEL-5 melanoma) > 100000 nM | GI50 (COLO 205 colon) > 100000 nM | GI50 (ACHN renal) > 100000 nM | GI50 (SR leukemia) > 100000 nM | GI50 (MOLT-4 leukemia) > 100000 nM | GI50 (HS 578T breast) > 100000 nM | GI50 (OVCAR-4 ovarian) > 100000 nM | GI50 (HT29 colon) > 100 µM | GI50 (HCC-2998 colon) > 100000 nM | GI50 (OVCAR-5 ovarian) > 100 µM | GI50 (SW-620 colon) > 100 µM | GI50 (TK-10 renal) > 100000 nM | GI50 (SN12C renal) > 100000 nM | GI50 (SF-295 CNS) > 100000 nM | GI50 (786-0 renal) > 100 µM | GI50 (HOP-92 NSCLC) > 100 µM | GI50 (IGROV1 ovarian) > 100000 nM | GI50 (T-47D breast) > 100 µM | GI50 (BT-549 breast) > 100000 nM | GI50 (SNB-19 CNS) > 100000 nM | GI50 (A549 NSCLC) > 100000 nM | GI50 (RPMI-8226 leukemia) > 100000 nM | GI50 (OVCAR-3 ovarian) > 100000 nM | GI50 (A498 renal) > 100000 nM
> 100000 nM: TGI (EKVX NSCLC) | TGI (MDA-MB-468 breast) | TGI (NCI-H23 lung) | TGI (U251 glioblastoma) | TGI (M14 melanoma) | TGI (NCI-H322M lung) | TGI (NCI-H226 lung) | TGI (MDA-MB-435 melanoma) | TGI (SF-539 CNS) | TGI (HL-60(TB) leukemia) | TGI (NCI-H460 NSCLC) | TGI (HOP-62 NSCLC) | TGI (SK-MEL-28 melanoma) | TGI (SF-268 CNS) | TGI (MALME-3M melanoma) | TGI (NCI-H522 lung) | TGI (DU-145 prostate) | TGI (UACC-257 melanoma) | TGI (UACC-62 melanoma) | TGI (SNB-75 CNS) | TGI (SK-MEL-5 melanoma) | TGI (COLO 205 colon) | TGI (SR leukemia) | TGI (MOLT-4 leukemia) | TGI (HS 578T breast) | TGI (OVCAR-4 ovarian) | TGI (HCC-2998 colon) | TGI (SN12C renal) | TGI (IGROV1 ovarian) | TGI (BT-549 breast) | TGI (RPMI-8226 leukemia) | TGI (OVCAR-3 ovarian) | TGI (A498 renal)
